Common to all, as to assay: Determination of Km and Vmax for peptide substrates
One data set deals with T1, HCV NS3 protease domain (Hepatitis C virus genotype 1b, UniProt Q9WMX2).
T1 construct: The first 181 amino acids of NS3 (residues 1027-1207 of the viral polyprotein); hexa-histidine (C); made in house; host or cells: E. coli BL21/DE3 pLysS
In kind it is biochemical. The following applies: enzyme NS3 protease domain; peptide substrate varied 3-200 μM; Michaelis-Menten fit. As for the experimental part: This assay is a modification of that described by Landro, et al. (Landro J A, Raybuck S A, Luong Y C, O'Malley E T, Harbeson S L, Morgenstern K A, Rao G and Livingston D L. Biochemistry 1997, 36, 9340-9348), and uses a peptide substrate (NS5AB), based on the NS5A/NS5B cleavage site for genotype 1a HCV. The substrate stock solution (25 mM) was prepared in DMSO containing 0.2 M DTT and stored at −20° C. A synthetic peptide cofactor (KK4A) was used as a substitute for the central core region of NS4A. The reaction was performed in a 96-well microtiter plate format using 25 ηM to 50 ηM HCV NS3 protease domain in buffer containing 50 mM HEPES pH 7.8, 100 mM NaCl, 20% glycerol, 5 mM DTT and 25 μM KK4A. The final DMSO concentration was no greater than 2% v/v. […]
The SMSY product was separated from substrate and KK4A using a microbore separation method. […] The SMSY product peak was quantitated using the data collected at […].
To determine the kinetic parameters Km and Vmax, the HCV NS3 protease domain or HCV NS3•4A was reacted with peptide substrate under the assay conditions described above. […] The ratio of the product peak area (as determined by reverse phase HPLC) to the reaction time yielded a rate of enzyme catalyzed hydrolysis. […] The value of kcat was determined from Vmax using the nominal protease concentration and a fully cleaved substrate peptide as an instrument calibration standard.

The target of the next data set is T2, HCV NS3•4A (Hepatitis C virus genotype 1a, UniProt P27958).
T2 construct: hexa-histidine (N); made in house; host or cells: Sf9 insect cells (baculovirus, pVL1392)
In kind it is biochemical, HCV sub-type strain 1a. Particulars: enzyme NS3•4A; peptide substrate varied 3-200 μM; Michaelis-Menten fit. The protocol:
(§1) This assay follows the cleavage of a peptide substrate by full-length hepatitis C viral protein NS3•4A. One of three peptide substrates based on the NS5A/NS5B cleavage site for genotype 1a HCV is used to measure enzyme activity. All substrate stock solutions (25 mM) were prepared in DMSO containing 0.2M DTT and stored at −20° C. A synthetic peptide cofactor (NS4A Peptide) was used to supplement NS4A. Peptide sequences are shown below. The hydrolysis reaction was performed in a 96-well microtiter plate format using 100 ηM to 125 ηM HCV NS3•4A in buffer containing 50 mM HEPES pH 7.8, 100 mM NaCl, 20% glycerol, 5 mM DTT and 25 μM NS4A Peptide. The final DMSO concentration was no greater than 2% v/v. Reactions using NS5AB or NS5AB-EDANS as substrate were quenched by the addition of 10% trifluoroacetic acid (TFA) to yield a final TFA concentration of 2.5%. Reactions using FITC-NS5AB-1 as substrate were quenched by the addition of 0.4M formic acid to yield a final concentration of 0.08M acid.
(§2) Enzymatic activity was assessed by separation of substrate and products by reverse phase HPLC. The instrument used was a Agilent 1100 with a G1322A degasser, either a G1312A binary pump or a G1311A quaternary pump, a G1313A autosampler, a G1316A column thermostated chamber, a G1321A fluorescence detector and a G1315A diode array detector. The column thermostat was at 40° C. […] The C-terminal product peak (NH2-SMSY-COOH) was quantitated using the absorbance data collected at 210 ηm. […] The C-terminal product peak (NH2-SMSYT-Asp(EDANS)-KKK-COOH) was quantitated using the fluorescence data collected at 350 ηm excitation/490 ηm emission. […] The N-terminal product peak (FITC-Ahx-EDVV-(alpha)Abu-C—COOH) was quantitated using the fluorescence data collected at 440 nm excitation/520 nm emission. Alternatively, the ratio of N-terminal product to unreacted FITC-NS5AB-1 substrate was determined using a Caliper LabChip 3000 with detection at 488 nm excitation/530 nm emission, using a chip buffer of 100 mM Tris pH 7.0, 10 mM EDTA, 0.01% (v/v) Brij-35, and 0.1% (v/v) CR-3. […]

Data set [1] relates to CC[C@H](NC(=O)[C@@H](NC(=O)[C@@H](NC(=O)[C@H](CC(=O)O)NC(=O)[C@@H](N)CCC(=O)O)C(C)C)C(C)C)C(=O)N[C@@H](CS)C(=O)N[C@@H](CO)C(=O)N[C@@H](CCSC)C(=O)N[C@@H](CO)C(=O)N[C@@H](Cc1ccc(O)cc1)C(=O)N[C@H](C(=O)N[C@@H](CC(=O)NCCNc1cccc2c(S(=O)(=O)O)cccc12)C(=O)N[C@@H](CCCCN)C(=O)N[C@@H](CCCCN)C(=O)N[C@@H](CCCCN)C(=O)O)[C@@H](C)O. In kind it is biochemical, HCV sub-type strain 1a. The following applies: other: enzyme NS3•4A; peptide substrate varied 3-200 μM; Michaelis-Menten fit; 40.0 °C. As for the experimental part:
as §1, §2

Among the data in patent US7964624B1, “Inhibitors of serine proteases” (priority 2005, dated 2011) are Km and kcat/Km values, retold here.

Where a SMILES comes first, the peptide text is derived from it. [ ]: non-standard residue; d: D form. Abu = CC[C@H](N)C(=O)O

In general, Km refers to the substrate concentration at which the rate is half of its maximum. Regarding `CC[C@H](NC(=O)[C@@H](NC(=O)[C@@H](NC(=O)[C@H](CC(=O)O)NC(=O)[C@@H](N)CCC(=O)O)C(C)C)C(C)C)C(=O)N[C@@H](CS)C(=O)N[C@@H](CO)C(=O)N[C@@H](CCSC)C(=O)N[C@@H](CO)C(=O)N[C@@H](Cc1ccc(O)cc1)C(=O)O` [DomainNS5AB] (H-EDVV[Abu]CSMSY-OH), on HCV NS3 protease domain, the Km turned out to be 25 µM.

Regarding `CC[C@H](NC(=O)[C@@H](NC(=O)[C@@H](NC(=O)[C@H](CC(=O)O)NC(=O)[C@@H](N)CCC(=O)O)C(C)C)C(C)C)C(=O)N[C@@H](CS)C(=O)N[C@@H](CO)C(=O)N[C@@H](CCSC)C(=O)N[C@@H](CO)C(=O)N[C@@H](Cc1ccc(O)cc1)C(=O)O` [NS5AB, NH2-EDVV-(alpha)Abu-CSMSY-COOH] (H-EDVV[Abu]CSMSY-OH), on HCV NS3•4A, the Km amounted to 30 µM.

What is called kcat/Km is the turnover number divided by the Michaelis constant. With “HCV NS3•4A (Hepatitis C virus (isolate H77))”, in data set [1], the Km came to 56 µM and the kcat/Km came out at 1400 M⁻¹ s⁻¹.
